Measurements published in patent EP4745137A1 (Gluetacs Therapeutics (Shanghai) Co., Ltd., priority 2023, dated 2025).

Tests used:
GSPT1 = biological target: T1, GSPT1 (Homo sapiens, UniProt P15170+Q96SW2); assay: Western-blot assay of substrate protein degradation in hPBMCs, GSPT1; format: cell-based; conditions: 24 hours of compound treatment, 50 nM and 500 nM tested (concentration behind the class not stated)
T1 construct: endogenous in cells; host or cells: hPBMCs (Milecell Biotechnologies)

IKZF3 = biological target: T2, IKZF3 (Homo sapiens, UniProt Q96SW2+Q9UKT9); assay: Western-blot assay of substrate protein degradation in hPBMCs, IKZF3; format: cell-based; conditions: 24 hours of compound treatment, 50 nM and 500 nM tested (concentration behind the class not stated)
T2 construct: endogenous in cells; host or cells: hPBMCs (Milecell Biotechnologies)

IKZF2 = biological target: T3, IKZF2 (Homo sapiens, UniProt Q96SW2+Q9UKS7); assay: Western-blot assay of substrate protein degradation in hPBMCs, IKZF2; format: cell-based; conditions: 24 hours of compound treatment, 50 nM and 500 nM tested (concentration behind the class not stated)
T3 construct: endogenous in cells; host or cells: hPBMCs (Milecell Biotechnologies)
T3 sequence (Q9UKS7 whole entry): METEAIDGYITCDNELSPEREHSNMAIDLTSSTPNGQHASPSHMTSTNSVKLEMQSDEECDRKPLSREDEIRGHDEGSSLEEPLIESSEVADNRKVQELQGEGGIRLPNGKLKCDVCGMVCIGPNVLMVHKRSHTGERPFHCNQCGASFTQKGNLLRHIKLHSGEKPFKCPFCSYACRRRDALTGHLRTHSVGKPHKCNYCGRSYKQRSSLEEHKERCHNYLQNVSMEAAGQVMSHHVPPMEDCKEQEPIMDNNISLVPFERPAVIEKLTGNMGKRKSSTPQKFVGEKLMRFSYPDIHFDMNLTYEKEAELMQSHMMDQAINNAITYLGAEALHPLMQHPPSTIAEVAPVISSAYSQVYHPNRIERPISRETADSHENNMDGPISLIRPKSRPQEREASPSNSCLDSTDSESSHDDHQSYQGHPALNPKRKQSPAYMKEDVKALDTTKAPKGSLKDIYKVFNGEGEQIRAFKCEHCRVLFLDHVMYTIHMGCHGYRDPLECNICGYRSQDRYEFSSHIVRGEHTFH
T3 sequence (Q96SW2 whole entry): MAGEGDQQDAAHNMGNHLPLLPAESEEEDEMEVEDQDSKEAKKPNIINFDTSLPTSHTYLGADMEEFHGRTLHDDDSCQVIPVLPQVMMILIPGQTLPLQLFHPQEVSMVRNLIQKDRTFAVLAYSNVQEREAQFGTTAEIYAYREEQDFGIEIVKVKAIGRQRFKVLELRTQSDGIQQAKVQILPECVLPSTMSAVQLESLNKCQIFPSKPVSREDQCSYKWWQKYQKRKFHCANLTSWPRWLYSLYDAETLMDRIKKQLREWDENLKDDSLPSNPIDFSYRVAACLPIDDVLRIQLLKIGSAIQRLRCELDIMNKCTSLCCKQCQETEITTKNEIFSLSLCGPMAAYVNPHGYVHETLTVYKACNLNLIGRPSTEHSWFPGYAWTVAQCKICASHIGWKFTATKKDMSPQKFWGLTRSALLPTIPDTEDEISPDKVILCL
T3 sequence (Q16531 whole entry partner): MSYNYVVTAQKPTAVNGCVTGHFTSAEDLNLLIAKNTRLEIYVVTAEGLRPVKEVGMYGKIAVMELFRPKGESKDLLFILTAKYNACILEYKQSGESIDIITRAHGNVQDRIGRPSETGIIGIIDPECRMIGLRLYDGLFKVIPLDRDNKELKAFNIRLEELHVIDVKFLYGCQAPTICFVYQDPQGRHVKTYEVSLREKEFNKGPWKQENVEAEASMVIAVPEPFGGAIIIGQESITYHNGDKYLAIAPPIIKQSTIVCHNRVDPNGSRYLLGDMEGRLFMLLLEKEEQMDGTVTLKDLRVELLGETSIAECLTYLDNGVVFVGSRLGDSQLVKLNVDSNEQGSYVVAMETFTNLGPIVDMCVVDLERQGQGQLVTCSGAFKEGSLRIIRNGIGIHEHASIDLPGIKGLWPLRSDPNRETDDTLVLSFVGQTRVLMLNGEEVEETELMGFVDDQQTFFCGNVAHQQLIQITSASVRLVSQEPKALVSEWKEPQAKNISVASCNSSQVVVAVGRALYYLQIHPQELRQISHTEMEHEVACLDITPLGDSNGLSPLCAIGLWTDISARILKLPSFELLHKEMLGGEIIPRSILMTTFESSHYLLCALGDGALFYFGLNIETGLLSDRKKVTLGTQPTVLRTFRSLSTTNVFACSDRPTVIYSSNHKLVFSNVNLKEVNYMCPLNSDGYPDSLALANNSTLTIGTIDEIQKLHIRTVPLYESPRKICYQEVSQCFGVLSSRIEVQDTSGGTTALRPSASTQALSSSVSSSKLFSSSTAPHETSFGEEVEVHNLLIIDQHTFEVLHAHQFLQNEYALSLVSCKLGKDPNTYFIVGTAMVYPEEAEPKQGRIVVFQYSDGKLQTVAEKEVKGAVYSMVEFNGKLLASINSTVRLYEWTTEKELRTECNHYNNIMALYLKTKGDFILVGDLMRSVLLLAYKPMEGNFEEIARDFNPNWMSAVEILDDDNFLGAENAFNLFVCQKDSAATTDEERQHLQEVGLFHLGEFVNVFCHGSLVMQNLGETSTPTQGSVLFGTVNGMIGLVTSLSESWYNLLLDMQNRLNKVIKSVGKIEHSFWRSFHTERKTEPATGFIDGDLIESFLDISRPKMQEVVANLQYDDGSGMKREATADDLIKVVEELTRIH

MV-4-11 = assay: Tumor cell proliferation inhibition (CellTiter-Meiluncell Luminescent Cell Viability Assay), MV-4-11; conditions: Homo sapiens, MV4-11, read-out: inhibitory activity (IC50, nM) against tumor cells proliferation, MV-4-11
CK1α = biological target: T4, CK1α (Homo sapiens, UniProt P48729+Q96SW2); assay: Western-blot assay of substrate protein degradation in hPBMCs, CK1α; format: cell-based; conditions: 24 hours of compound treatment, 50 nM and 500 nM tested (concentration behind the class not stated)
T4 construct: endogenous in cells; host or cells: hPBMCs (Milecell Biotechnologies)
T4 sequence (P48729 whole entry): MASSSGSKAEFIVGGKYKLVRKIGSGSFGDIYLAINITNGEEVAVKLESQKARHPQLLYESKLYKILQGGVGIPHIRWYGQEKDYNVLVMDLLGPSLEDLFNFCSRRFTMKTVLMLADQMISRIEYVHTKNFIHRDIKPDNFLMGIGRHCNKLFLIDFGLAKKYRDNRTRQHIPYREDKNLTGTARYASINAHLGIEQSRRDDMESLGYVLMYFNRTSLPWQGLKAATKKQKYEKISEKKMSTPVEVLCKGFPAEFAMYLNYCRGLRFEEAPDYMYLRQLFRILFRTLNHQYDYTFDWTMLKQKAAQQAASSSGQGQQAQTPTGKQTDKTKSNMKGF
T4 sequence (Q96SW2 whole entry): as the sequence (Q96SW2 whole entry) above
T4 sequence (Q16531 whole entry partner): as the sequence (Q16531 whole entry partner) above

IKZF1 = biological target: T5, IKZF1 (Homo sapiens, UniProt Q13422+Q96SW2); assay: Western-blot assay of substrate protein degradation in hPBMCs, IKZF1; format: cell-based; conditions: 24 hours of compound treatment, 50 nM and 500 nM tested (concentration behind the class not stated)
T5 construct: endogenous in cells; host or cells: hPBMCs (Milecell Biotechnologies)
T5 sequence (Q13422 whole entry): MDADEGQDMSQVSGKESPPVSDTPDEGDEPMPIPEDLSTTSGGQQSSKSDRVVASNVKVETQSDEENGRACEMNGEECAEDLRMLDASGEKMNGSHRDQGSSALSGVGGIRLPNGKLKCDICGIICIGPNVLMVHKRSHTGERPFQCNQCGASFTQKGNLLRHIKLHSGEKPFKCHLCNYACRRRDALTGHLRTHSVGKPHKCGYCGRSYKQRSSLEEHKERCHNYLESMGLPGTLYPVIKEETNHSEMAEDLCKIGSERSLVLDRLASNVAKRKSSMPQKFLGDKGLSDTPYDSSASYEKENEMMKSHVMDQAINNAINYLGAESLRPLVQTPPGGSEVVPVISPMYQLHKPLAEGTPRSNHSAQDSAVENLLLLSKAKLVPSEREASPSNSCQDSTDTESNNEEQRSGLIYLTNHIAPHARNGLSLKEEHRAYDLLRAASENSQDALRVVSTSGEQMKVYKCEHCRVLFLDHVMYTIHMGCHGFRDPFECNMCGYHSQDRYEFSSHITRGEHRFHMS
T5 sequence (Q96SW2 whole entry): as the sequence (Q96SW2 whole entry) above
T5 sequence (Q16531 whole entry partner): as the sequence (Q16531 whole entry partner) above

WEE1 = biological target: T6, WEE1 (Homo sapiens, UniProt P30291+Q96SW2); assay: Western-blot assay of substrate protein degradation in hPBMCs, WEE1; format: cell-based; conditions: 24 hours of compound treatment, 50 nM and 500 nM tested (concentration behind the class not stated)
T6 construct: endogenous in cells; host or cells: hPBMCs (Milecell Biotechnologies)
T6 sequence (P30291 whole entry): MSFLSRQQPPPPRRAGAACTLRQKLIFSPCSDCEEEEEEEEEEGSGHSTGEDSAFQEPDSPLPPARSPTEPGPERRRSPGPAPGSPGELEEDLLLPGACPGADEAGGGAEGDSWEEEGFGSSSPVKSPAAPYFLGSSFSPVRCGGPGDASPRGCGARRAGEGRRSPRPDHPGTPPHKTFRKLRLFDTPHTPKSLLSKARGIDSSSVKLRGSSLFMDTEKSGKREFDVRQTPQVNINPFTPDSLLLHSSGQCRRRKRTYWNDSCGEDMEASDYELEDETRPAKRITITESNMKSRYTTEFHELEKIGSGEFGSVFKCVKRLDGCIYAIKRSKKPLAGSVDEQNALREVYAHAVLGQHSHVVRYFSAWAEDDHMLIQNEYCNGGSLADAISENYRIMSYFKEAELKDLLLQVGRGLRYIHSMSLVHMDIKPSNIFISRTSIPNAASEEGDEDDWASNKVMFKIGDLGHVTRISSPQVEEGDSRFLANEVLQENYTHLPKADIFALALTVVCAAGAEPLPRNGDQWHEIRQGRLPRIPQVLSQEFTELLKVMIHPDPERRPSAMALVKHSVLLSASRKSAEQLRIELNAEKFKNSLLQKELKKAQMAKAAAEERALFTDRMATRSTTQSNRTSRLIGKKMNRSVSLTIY
T6 sequence (Q96SW2 whole entry): as the sequence (Q96SW2 whole entry) above
T6 sequence (Q16531 whole entry partner): as the sequence (Q16531 whole entry partner) above

T1 sequence (P15170 whole entry): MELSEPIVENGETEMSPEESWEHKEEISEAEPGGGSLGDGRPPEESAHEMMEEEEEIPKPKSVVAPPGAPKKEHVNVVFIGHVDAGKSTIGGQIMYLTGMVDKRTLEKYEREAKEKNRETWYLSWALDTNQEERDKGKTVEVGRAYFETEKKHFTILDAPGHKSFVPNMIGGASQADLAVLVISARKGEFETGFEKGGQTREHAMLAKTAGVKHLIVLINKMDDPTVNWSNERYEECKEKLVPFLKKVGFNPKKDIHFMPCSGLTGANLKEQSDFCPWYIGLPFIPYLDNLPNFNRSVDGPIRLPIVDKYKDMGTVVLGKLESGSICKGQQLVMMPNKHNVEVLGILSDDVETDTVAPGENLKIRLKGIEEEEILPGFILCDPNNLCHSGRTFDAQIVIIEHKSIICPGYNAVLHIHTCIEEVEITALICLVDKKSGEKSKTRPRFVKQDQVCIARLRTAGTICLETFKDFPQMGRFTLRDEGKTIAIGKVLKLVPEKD
T1 sequence (Q96SW2 whole entry): as the sequence (Q96SW2 whole entry) above
T1 sequence (Q16531 whole entry partner): as the sequence (Q16531 whole entry partner) above

| Structure (SMILES) | IC50 (MV-4-11) [nM] | GSPT1 substrate protein remaining % (GSPT1) | IKZF3 substrate protein remaining % (IKZF3) | IKZF2 substrate protein remaining % (IKZF2) | CK1a substrate protein remaining % (CK1α) | IKZF 1 substrate protein remaining % (IKZF1) | Weel substrate protein remaining % (WEE1) |
| --- | --- | --- | --- | --- | --- | --- | --- |
| O=C1CCC(N2C(=O)c3ccc(CN4CCN(c5ccnc(Cl)c5F)CC4)cc3C2=O)C(=O)N1 (stereo not drawn) [GT-06620, 5-((4-(2-chloro-3-fluoropyridin-4-yl)piperazin-1-yl)methyl)-2-(2,6-dioxopiperidin-3-yl)isoindoline-1,3-dione] | 100 to 500 | A (0% ≤ substrate protein remaining % ≤ 80%) | A (0% ≤ substrate protein remaining % ≤ 80%) | B (80%< substrate protein remaining %≤ 100%) | B (80%< substrate protein remaining %≤ 100%) | B (80%< substrate protein remaining %≤ 100%) | B (80%< substrate protein remaining %≤ 100%) |
| O=C1CCC(N2C(=O)c3ccc(CN4CCC(n5cnc6cc(F)ccc65)CC4)cc3C2=O)C(=O)N1 (stereo not drawn) [GT-06638, 2-(2,6-dioxopiperidin-3-yl)-5-((4-(5-fluoro-1H-benzo[d]imidazol-1-yl)piperidin-1-yl)methyl)isoindoline-1,3-dione] | 500 to 1000 | A (0% ≤ substrate protein remaining % ≤ 80%) | B (80%< substrate protein remaining %≤ 100%) | B (80%< substrate protein remaining %≤ 100%) | A (0% ≤ substrate protein remaining % ≤ 80%) | B (80%< substrate protein remaining %≤ 100%) | A (0% ≤ substrate protein remaining % ≤ 80%) |
| O=C1CCC(N2C(=O)c3ccc(CN4CCN(c5nc(N6CCOCC6)nc6ccsc56)CC4)cc3C2=O)C(=O)N1 (stereo not drawn) [GT-06717, 2-(2,6-dioxopiperidin-3-yl)-5-((4-(2-morpholinothieno[3,2-d]pyrimidin-4-yl)piperazin-1-yl)methyl)isoindoline-1,3-dione] | 10 to 50 | A (0% ≤ substrate protein remaining % ≤ 80%) | B (80%< substrate protein remaining %≤ 100%) | B (80%< substrate protein remaining %≤ 100%) | B (80%< substrate protein remaining %≤ 100%) | A (0% ≤ substrate protein remaining % ≤ 80%) | A (0% ≤ substrate protein remaining % ≤ 80%) |
| O=C1CCC(N2C(=O)c3ccc(CN4CCC(N5CCc6cc(F)ccc65)CC4)cc3C2=O)C(=O)N1 (stereo not drawn) [GT-06637, 2-(2,6-dioxopiperidin-3-yl)-5-((4-(5-fluoroindolin-1-yl)piperidin-1-yl)methyl)isoindoline-1,3-dione] | 50 to 100 | A (0% ≤ substrate protein remaining % ≤ 80%) | A (0% ≤ substrate protein remaining % ≤ 80%) | A (0% ≤ substrate protein remaining % ≤ 80%) | A (0% ≤ substrate protein remaining % ≤ 80%) | A (0% ≤ substrate protein remaining % ≤ 80%) | A (0% ≤ substrate protein remaining % ≤ 80%) |
| O=C1CCC(N2C(=O)c3ccc(CN4CCN(c5nsc6cc(F)ccc56)CC4)cc3C2=O)C(=O)N1 (stereo not drawn) [GT-06631, 2-(2,6-dioxopiperidin-3-yl)-5-((4-(6-fluorobenzo[d]isothiazol-3-yl)piperazin-1-yl)methyl)isoindoline-1,3-dione] | 100 to 500 | A (0% ≤ substrate protein remaining % ≤ 80%) | B (80%< substrate protein remaining %≤ 100%) | B (80%< substrate protein remaining %≤ 100%) | A (0% ≤ substrate protein remaining % ≤ 80%) | B (80%< substrate protein remaining %≤ 100%) | A (0% ≤ substrate protein remaining % ≤ 80%) |
| O=C1CCC(N2C(=O)c3ccc(CN4CC=C(c5ccnc(F)c5F)CC4)cc3C2=O)C(=O)N1 (stereo not drawn) [GT-06614, 5-((2',3'-difluoro-3,6-dihydro-[4,4'-bipyridin]-1(2H)-yl)methyl)-2-(2,6-dioxopiperidin-3-yl)isoindoline-1,3-dione] | 10 to 50 | A (0% ≤ substrate protein remaining % ≤ 80%) | B (80%< substrate protein remaining %≤ 100%) | B (80%< substrate protein remaining %≤ 100%) | A (0% ≤ substrate protein remaining % ≤ 80%) | B (80%< substrate protein remaining %≤ 100%) | B (80%< substrate protein remaining %≤ 100%) |

More lines, main results first:

| IC50 (MV-4-11) [nM] | Structure (SMILES) | GSPT1 substrate protein remaining % (GSPT1) | IKZF3 substrate protein remaining % (IKZF3) | IKZF2 substrate protein remaining % (IKZF2) | CK1a substrate protein remaining % (CK1α) | IKZF 1 substrate protein remaining % (IKZF1) | Weel substrate protein remaining % (WEE1) |
| --- | --- | --- | --- | --- | --- | --- | --- |
| 100 to 500 | O=C1CCC(N2C(=O)c3ccc(CN4CCN(c5nccc(Cl)c5Br)CC4)cc3C2=O)C(=O)N1 (stereo not drawn) [GT-06601, 5-((4-(3-bromo-4-chloropyridin-2-yl)piperazin-1-yl)methyl)-2-(2,6-dioxopiperidin-3-yl)isoindoline-1,3-dione] | A (0% ≤ substrate protein remaining % ≤ 80%) | B (80%< substrate protein remaining %≤ 100%) | B (80%< substrate protein remaining %≤ 100%) | B (80%< substrate protein remaining %≤ 100%) | B (80%< substrate protein remaining %≤ 100%) | B (80%< substrate protein remaining %≤ 100%) |
| 100 to 500 | O=C1CCC(N2C(=O)c3ccc(CN4CCN(c5nc(N6CCOCC6)nc6c5SCC6)CC4)cc3C2=O)C(=O)N1 (stereo not drawn) [GT-06712, 2-(2,6-dioxopiperidin-3-yl)-5-((4-(2-morpholino-6,7-dihydrothieno[3,2-d]pyrimidin-4-yl)piperazin-1-yl)methyl)isoindoline-1,3-dione] | A (0% ≤ substrate protein remaining % ≤ 80%) | B (80%< substrate protein remaining %≤ 100%) | B (80%< substrate protein remaining %≤ 100%) | B (80%< substrate protein remaining %≤ 100%) | B (80%< substrate protein remaining %≤ 100%) | B (80%< substrate protein remaining %≤ 100%) |
| 100 to 500 | O=C1CCC(N2C(=O)c3ccc(CN4CCN(c5cc(Cl)nnc5Cl)CC4)cc3C2=O)C(=O)N1 (stereo not drawn) [GT-06625, 5-((4-(3,6-dichloropyridazin-4-yl)piperazin-1-yl)methyl)-2-(2,6-dioxopiperidin-3-yl)isoindoline-1,3-dione] | A (0% ≤ substrate protein remaining % ≤ 80%) | B (80%< substrate protein remaining %≤ 100%) | B (80%< substrate protein remaining %≤ 100%) | B (80%< substrate protein remaining %≤ 100%) | B (80%< substrate protein remaining %≤ 100%) | B (80%< substrate protein remaining %≤ 100%) |
